The experiment has as its system rat carrageenin-induced pleuritis. The experiment can be described thus: Inhibitory effect on rat carrageenin-induced pleuritis (dye leakage into pleural cavity). The experiment is classed as in vivo, Wistar rats. To be noted: NFLX-DX 13.4 mg/kg orally 30 min before induction, n = 7. The procedure:
Inhibitory Effect of the Compound on Rat Carrageenin-induced Pleuritis The inhibitory effect of norfloxacin-dexamethasone ester hydrochloride on rat carrageenin-induced pleuritis was evaluated. [Test substance] Norfloxacin-dexamethasone ester hydrochloride (abbreviatedname: NFLX-DX) Wistar rats weighing about 200 g were used. Two groups receiving (1) distilled water (5 ml/kg) and (2) NFLX-DX (13.4 mg/kg), respectively, were provided. Under pentobarbital anesthesia, 0.1 ml of 2% λ-carrageenin was injected into the rat pleura to induce pleuritis. Five hours after the construction of pleuritis, a 5% aqueous solution of Pontamine Sky Blue (2 mg/kg) was injected intravenously, and 20 minutes later the rat was sacrificed and the pleural exudate was collected using a tube. The amount of dye leakage in the pleural cavity (μg/site) was estimated from the amount and absorbance (625 nm) of the exudate sample (ml) by the calibration curve method. The test substance was administered orally (5 ml/kg) 30 minutes before induction of inflammation.

The results in this text go back to patent US5599807A, “Steroid derivatives” (Senju Pharmaceutical Co., Ltd., priority 1993, dated 1997).

For orientation: % Inhibition means the percentage by which the read-out fell short of the control.

Counter-ions that a name gives are not always drawn.

`CCn1cc(C(=O)OCC(=O)[C@@]2(O)[C@H](C)C[C@H]3[C@@H]4CCC5=CC(=O)C=C[C@]5(C)[C@@]4(F)[C@@H](O)C[C@@]32C)c(=O)c2cc(F)c(N3CCNCC3)cc21` [NFLX-DX, 9-Fluoro-11β,17,21-trihydroxy-16α-methyl-1,4-pregnadiene-3, 20-dione-21-[1-ethyl-6-fluoro-1,4-dihydro-7-(1-piperazinyl)-4-oxo-3-quinolinecarboxylate]hydrochloride]: the Dye leakage (mean ± standard error, * p < 0.01 vs control (distilled water, 74.81 ± 10.70)) is 20.02 ± 3.80 μg/site. Further, where the note is “inhibition of dye leakage vs control (distilled water)”, the “% Inhibition” value amounted to 73.0%.
